From patent publication US20110091728A1, “Felbamate With Improved Bulk Density” (priority 2007, published 2011)

Experiments:
[1] = Bulk density determination of felbamate (10 ml graduated cylinder, 50 taps); format: physicochemical
Description: One important characteristic is tapped bulk density, or simply tapped (or tap) density, that is the maximum packing density of a powder (or blend of powders) achieved under the influence of well defined, externally applied forces (see, http://en.wikipedia.org/wiki/Bulk_density). The minimum packed volume thus achieved depends on a number of factors including particle size distribution, true density, particle shape and cohesiveness due to surface forces including moisture. Therefore, the tap density of a material can be used to predict both its flow properties and its compressibility. These two parameters are important in the overall tabletting process, which requires that loose powders be compacted into a durable solid form with the correct mechanical strength, porosity and dissolution characteristics. These parameters are also important in the formation of oral suspensions, which ideally contain particles of high bulk density, enabling even dispersion of the particles throughout the suspension after shaking and before consumption.
Felbamate (1.211 gm) purified by the above process (Example 3) was poured into a 10 ml graduated cylinder. The untapped volume of felbamate was 3.5 ml, resulting in an untapped bulk density of 0.35 gm/ml which was greater than the untapped bulk density of felbamate prepared by other methods (see below, Examples 9 and 10). The graduated cylinder was tapped until the felbamate (50 taps) no longer settled. The volume of felbamate after tapping was 2.2 ml, resulting in a tapped bulk density of 0.55 gm/ml.
Felbamate (0.972 gm) synthesized by the process disclosed in WO 94/06737 was poured into a 10 ml graduated cylinder. The untapped volume of felbamate was 5.1 ml, resulting in an untapped bulk density of 0.19 gm/ml. The graduated cylinder was tapped until the felbamate (50 taps) no longer settled. The volume of felbamate after tapping was 3.2 ml, resulting in a tapped bulk density of 0.30 gm/ml.
Felbamate (2 gm) synthesized by the process disclosed in U.S. Pat. No. 4,868,327 was purified by adding to 20 ml of methanol, heating the methanol to reflux to obtain a clear solution, cooling the solution to room temperature over three hours with stirring, and isolating the felbamate by filtration and drying under vacuum at 50° C. Felbamate (0.927 gm) purified by this process was poured into a 10 ml graduated cylinder. The untapped volume of felbamate was 6.5 ml, resulting in an untapped bulk density of 0.14 gm/ml. The graduated cylinder was tapped until the felbamate (50 taps) no longer settled. The volume of felbamate after tapping was 2.9 ml, resulting in a tapped bulk density of 0.32 gm/ml.

[2] = as above; format: physicochemical; remark: listed apart in the source

NC(=O)OCC(COC(N)=O)c1ccccc1 [Felbamate, 2-phenyl-1,3-propanediol dicarbamate]
untapped bulk density ([1]; Table I, U.S. Pat. No. 4,868,327): 0.14 g/mL
tapped bulk density ([1]; Table I, U.S. Pat. No. 4,868,327, 50 taps): 0.32 g/mL
untapped bulk density ([1]; Table I, WO 94/06737): 0.19 g/mL
tapped bulk density ([1]; Table I, WO 94/06737, 50 taps): 0.3 g/mL
untapped bulk density ([1]; Table I, purification process as disclosed in Example 3): 0.35 g/mL
tapped bulk density ([1]; Table I, purification process as disclosed in Example 3, 50 taps): 0.55 g/mL
untapped bulk density ([1]; felbamate by process of U.S. Pat. No. 4,868,327, recrystallised from methanol (Example 10)): 0.14 gm/ml
tapped bulk density ([1]; felbamate by process of U.S. Pat. No. 4,868,327, recrystallised from methanol, 50 taps (Example 10)): 0.32 gm/ml
untapped bulk density ([1]; felbamate purified by process of Example 3, 1.211 gm in 10 ml cylinder (Example 8)): 0.35 gm/ml
tapped bulk density ([1]; felbamate purified by process of Example 3, 50 taps (Example 8)): 0.55 gm/ml
tapped bulk density ([1]; felbamate purified from methanol-water (Example 3)): 0.5 gm/ml
tapped bulk density ([1]; felbamate purified from tetrahydrofuran-water (Example 5)): 0.4 gm/ml
untapped bulk density ([1]; felbamate synthesized by process of WO 94/06737 (Example 9)): 0.19 gm/ml
tapped bulk density ([1]; felbamate synthesized by process of WO 94/06737, 50 taps (Example 9)): 0.30 gm/ml
tapped bulk density ([2]; felbamate purified from acetonitrile-water (Example 4)): 0.55 gm/ml
tapped bulk density ([2]; felbamate purified from isopropanol-water (Example 6)): 0.54 gm/ml
tapped bulk density ([2]; felbamate purified from water (Example 7)): 0.35 gm/ml
